Reference: patent US7205306B2, “Substituted pyrazinones, pyridines and pyrimidines as corticotropin releasing factor ligands” (Bristol-Myers Squibb Pharma Company, priority 2001, dated 2007)

melting point | Structure (SMILES)
127 to 128 °C | CSCCn1cc(Cl)nc(N2CCc3cc(Cl)cc(Cl)c32)c1=O [Example 535, 5-Chloro-3-(5,7-dichloro-2,3-dihydro-1H-indol-1-yl)-1-[2-(methylthio)ethyl]-2(1H)-pyrazinone]
150 °C | CCC(C)n1cc(Cl)nc(N2CCc3cc(Br)cc(Cl)c32)c1=O (centres unmarked) [Example 538, 3-(5-Bromo-7-chloro-2,3-dihydro-1H-indol-1-yl)-5-chloro-1-methylpropyl-2(1H)-pyrazinone]
136 to 137 °C | CCc1cn(C(CC)CC)c(=O)c(N2CCc3cc(Cl)cc(Cl)c32)n1 [Example 539, 3-(5,7-Dichloro-2,3-dihydro-1H-indol-1-yl)-5-ethyl-1-(1-ethylpropyl)-2(1H)-pyrazinone]
156 to 157 °C | CCC(CC)n1cc(Cl)nc(N2CCc3cc(Br)cc(Cl)c32)c1=O [Example 540, 3-(5-Bromo-7-chloro-2,3-dihydro-1H-indol-1-yl)-5-chloro-1-(1-ethylpropyl)-2(1H)-pyrazinone]
197 to 199 °C | CCC(CC)n1cc(C#N)nc(N2CCc3cc(Cl)cc(Cl)c32)c1=O [Example 541, 6-(5,7-Dichloro-2,3-dihydro-1H-indol-1-yl)-4-(1-ethylpropyl)-4,5-dihydro-5-oxo-2-pyrazinecarbonitrile]
154 to 156 °C | CC[C@H](C1CC1)n1cc(Cl)nc(N2CCc3cc(Br)cc(Cl)c32)c1=O [Example 542, 3-(5-Bromo-7-chloro-2,3-dihydro-1H-indol-1-yl)-5-chloro-1-[(1R)-1-cyclopropylpropyl]-2(1H)-pyrazinone]
126 to 127 °C | CC[C@@H](C1CC1)n1cc(Cl)nc(N2CCc3cc(Br)cc(Cl)c32)c1=O [Example 543, 3-(5-Bromo-7-chloro-2,3-dihydro-1H-indol-1-yl)-5-chloro-1-[(1S)-1-cyclopropylpropyl]-2(1H)-pyrazinone]
141 to 142 °C | CC[C@H](COC)n1cc(Cl)nc(N2CCc3cc(OC)cc(C#N)c32)c1=O [Example 546, 1-[6-Chloro-4-[(1R)-1-(methoxymethyl)propyl]-3,4-dihydro-3-oxopyrazinyl]-5-methoxy-2,3-dihydro-1H-indole-7-carbonitrile]
118 °C | CC[C@H](COC)n1cc(Br)nc(N2CCc3cc(Br)cc(Cl)c32)c1=O [Example 547, 5-Bromo-3-(5-bromo-7-chloro-2,3-dihydro-1H-indol-1-yl)-1-[(1R)-1-(methoxymethyl)propyl]-2(1H)-pyrazinone]
121 to 122 °C | CC[C@@H](COC)n1cc(Cl)nc(N2CCc3cc(Br)cc(Cl)c32)c1=O [Example 548, 3-(5-Bromo-7-chloro-2,3-dihydro-1H-indol-1-yl)-5-chloro-1-[(1S)-1-(methoxymethyl)propyl]-2(1H)-pyrazinone]
125 to 126 °C | CCC(CC)n1cc(Cl)nc(N2CCCc3cc(OC)cc(Br)c32)c1=O [Example 550, 3-(8-Bromo-6-methoxy-1,2,3,4-tetrahydroquinoline)-5-chloro-1-(1-ethylpropyl)-2(1H)-pyrazinone]
127 to 129 °C | CC[C@H](C1CC1)n1cc(Cl)nc(N2CCCc3cc(OC)cc(Br)c32)c1=O [Example 551, 3-(8-Bromo-6-methoxy-1,2,3,4-tetrahydroquinoline)-5-chloro-1-[(1R)-1-cyclopropylpropyl]-2(1H)-pyrazinone]
118 to 119 °C | CC[C@@H](C1CC1)n1cc(Cl)nc(N2CCCc3cc(OC)cc(Br)c32)c1=O [Example 552, 3-(8-Bromo-6-methoxy-1,2,3,4-tetrahydroquinoline)-5-chloro-1-[(1S)-1-cyclopropylpropyl]-2(1H)-pyrazinone]
146 °C | COC[C@@H](C)n1cc(Cl)nc(N2CCCc3cc(OC)cc(Br)c32)c1=O [Example 553, 3-(8-Bromo-6-methoxy-1,2,3,4-tetrahydroquinoline)-5-chloro-1-[(1R)-2-methoxy-1-methylethyl]-2(1H)-pyrazinone]
102 to 103 °C | CC[C@H](COC)n1cc(Br)nc(N2CCCc3cc(OC)cc(Br)c32)c1=O [Example 554, 5-Bromo-3-(8-bromo-6-methoxy-1,2,3,4-tetrahydroquinoline)-1-[(1R)-1-(methoxymethyl)propyl]-2(1H)-pyrazinone]
93 to 94 °C | CC[C@@H](COC)n1cc(Cl)nc(N2CCCc3cc(OC)cc(Br)c32)c1=O [Example 555, 3-(8-Bromo-6-methoxy-1,2,3,4-tetrahydroquinoline)-5-chloro-1-[(1S)-1-(methoxymethyl)propyl]-2(1H)-pyrazinone]

More lines, now with the values behind:

Structure (SMILES) | melting point
CCC(CC)n1cc(Cl)nc(N2CCc3cc(Cl)cc(Cl)c32)c1=O [Example 401, 5-Chloro-3-(5,7-dichloro-2,3-dihydro-1H-indol-1-yl)-1-(1-ethylpropyl)-2(1H)-pyrazinone] | 168 to 170 °C
CCC(CCOC)n1cc(Cl)nc(N2CCc3cc(Cl)cc(Cl)c32)c1=O (centres unmarked) [Example 410, 5-Chloro-3-(5,7-dichloro-2,3-dihydro-1H-indol-1-yl)-1-(1-ethyl-3-methoxypropyl)-2(1H)-pyrazinone] | 95 to 97 °C
CCC(COC)n1cc(Cl)nc(N2CCc3cc(OC)cc(Cl)c32)c1=O (centres unmarked) [Example 413, 5-Chloro-3-(7-chloro-5-methoxy-2,3-dihydro-1H-indol-1-yl)-1-[1-(methoxymethyl)propyl]-2(1H)-pyrazinone] | 131 to 133 °C
CCC(CC)n1cc(C)nc(N2CCc3cc(Cl)cc(Cl)c32)c1=O [Example 451, 3-(5,7-Dichloro-2,3-dihydro-1H-indol-1-yl)-1-(1-ethylpropyl)-5-methyl-2(1H)-pyrazinone] | 137 to 139 °C
CCC(CC)n1cc(Br)nc(N2CCc3cc(Cl)cc(Cl)c32)c1=O [Example 507, 5-Bromo-3-(5,7-dichloro-2,3-dihydro-1H-indol-1-yl)-1-(1-ethylpropyl)-2(1H)-pyrazinone] | 158 to 160 °C
CC[C@H](C1CC1)n1cc(Cl)nc(N2CCc3cc(Cl)cc(Cl)c32)c1=O [Example 511, 5-Chloro-1-[(1R)-1-cyclopropylpropyl]-3-(5,7-dichloro-2,3-dihydro-1H-indol-1-yl)-2(1H)-pyrazinone] | 166 to 168 °C
CC[C@H](C1CC1)n1cc(Cl)nc(N2CCc3cc(Br)cc(Br)c32)c1=O [Example 512, 5-Chloro-1-[(1R)-1-cyclopropylpropyl]-3-(5,7-dibromo-2,3-dihydro-1H-indol-1-yl)-2(1H)-pyrazinone] | 164 to 165 °C
CC[C@H](C1CC1)n1cc(Cl)nc(N2CCc3cc(OC)c(F)c(Cl)c32)c1=O [Example 513, 5-Chloro-3-(7-chloro-6-fluoro-5-methoxy-2,3-dihydro-1H-indol-1-yl)-1-[(1R)-1-cyclopropylpropyl]-2(1H)-pyrazinone] | 128 to 130 °C
CC[C@@H](C1CC1)n1cc(Cl)nc(N2CCc3cc(Cl)cc(Cl)c32)c1=O [Example 517, 5-Chloro-1-[(1S)-1-cyclopropylpropyl]-3-(5,7-dichloro-2,3-dihydro-1H-indol-1-yl)-2(1H)-pyrazinone] | 157 to 159 °C
CC[C@@H](C1CC1)n1cc(Cl)nc(N2CCc3cc(Br)cc(Br)c32)c1=O [Example 518, 5-Chloro-1-[(1S)-1-cyclopropylpropyl]-3-(5,7-dibromo-2,3-dihydro-1H-indol-1-yl)-2(1H)-pyrazinone] | 165 °C
CC[C@@H](C1CC1)n1cc(Cl)nc(N2CCc3cc(OC)c(F)c(Cl)c32)c1=O [Example 519, 5-Chloro-3-(7-chloro-6-fluoro-5-methoxy-2,3-dihydro-1H-indol-1-yl)-1-[(1S)-1-cyclopropylpropyl]-2(1H)-pyrazinone] | 127 to 129 °C
COC[C@@H](C)n1cc(Cl)nc(N2CCc3cc(Cl)cc(Cl)c32)c1=O [Example 520, 5-Chloro-3-(5,7-dichloro-2,3-dihydro-1H-indol-1-yl)-1-[(1R)-2-methoxy-1-methylethyl]-2(1H)-pyrazinone] | 93 to 95 °C
COC[C@@H](C)n1cc(Cl)nc(N2CCc3cc(Br)cc(Br)c32)c1=O [Example 521, 5-Chloro-3-(5,7-dibromo-2,3-dihydro-1H-indol-1-yl)-1-[(1R)-2-methoxy-1-methylethyl]-2(1H)-pyrazinone] | 119 to 120 °C
CCC(COC)n1cc(Cl)nc(N2CCc3cc(OC)c(F)c(Cl)c32)c1=O (centres unmarked) [Example 522, 5-Chloro-3-(7-chloro-6-fluoro-5-methoxy-2,3-dihydro-1H-indol-1-yl)-1-[1-(methoxymethyl)propyl]-2(1H)-pyrazinone] | 140 to 142 °C
CC[C@H](COC)n1cc(Cl)nc(N2CCc3cc(Cl)cc(Cl)c32)c1=O [Example 524, 5-Chloro-3-(5,7-dichloro-2,3-dihydro-1H-indol-1-yl)-1-[(1R)-1-(methoxymethyl)propyl]-2(1H)-pyrazinone] | 143 to 146 °C
CC[C@H](COC)n1cc(Br)nc(N2CCc3cc(Cl)cc(Cl)c32)c1=O [Example 527, 5-Bromo-3-(5,7-dichloro-2,3-dihydro-1H-indol-1-yl)-1-[(1R)-1-(methoxymethyl)propyl]-2(1H)-pyrazinone] | 150 to 152 °C
CC[C@H](COC)n1cc(Br)nc(N2CCc3cc(OC)c(F)c(Cl)c32)c1=O [Example 528, 5-Bromo-3-(7-chloro-6-fluoro-5-methoxy-2,3-dihydro-1H-indol-1-yl)-1-[(1R)-1-(methoxymethyl)propyl]-2(1H)-pyrazinone] | 150 to 152 °C
CC[C@@H](COC)n1cc(Cl)nc(N2CCc3cc(Cl)cc(Cl)c32)c1=O [Example 530, 5-Chloro-3-(5,7-dichloro-2,3-dihydro-1H-indol-1-yl)-1-[(1S)-1-(methoxymethyl)propyl]-2(1H)-pyrazinone] | 143 to 146 °C
CC[C@@H](COC)n1cc(Br)nc(N2CCc3cc(Cl)cc(Cl)c32)c1=O [Example 531, 5-Bromo-3-(5,7-dichloro-2,3-dihydro-1H-indol-1-yl)-1-[(1S)-1-(methoxymethyl)propyl]-2(1H)-pyrazinone] | 152 to 154 °C
